Source: patent US20170260285A1, “METHODS FOR TREATING CANCER” (UNIVERSITY OF IOWA RESEARCH FOUNDATION, priority 2014, published 2017)
Entries after “also recorded” stand apart in the source; their conditions may differ. Residues, ends and D or L forms follow the SMILES beside them. *: point of attachment. Cbz = O=C(OCc1ccccc1)*; CH2F = FC*

Assays:
HNSCC tumor cell lines = settings: previous studies (ref. 10); cited from earlier work
SQ20B HNSCC cells [1] = test: IL-6 secretion by ELISA in SQ20B cells; format: cell-based, human; settings: for baseline IL-6 (absence of erlotinib): agent 2 h (1 h for caspase inhibitors, NAC, CAT) then DMSO 48 h; for erlotinib-induced IL-6: agent pre-treatment then erlotinib 5 μM 48 h
Excerpt: (§1) Cal-27 and FaDu human head and neck squamous carcinoma (HNSCC) cells were obtained from the American Type Culture Collection (ATCC, Manassas, Va.). SQ20B HNSCC cells (16) were a gift from Dr. Anjali Gupta (Department of Radiation Oncology, The University of Iowa). All HNSCC cell lines are EGFR positive and are sensitive to EGFR inhibitors. All cell lines were authenticated by the ATCC for viability (before freezing and after thawing), growth, morphology and isoenzymology. Cells were stored according to the supplier's instructions and used over a course of no more than 3 months after resuscitation of frozen aliquots. Cultures were maintained in 5% CO2 and air humidified in a 37° C. incubator.
(§2) Erlotinib (ERL; Tarceva) and anakinra (ANA; Kineret) were obtained from the inpatient pharmacy at the University of Iowa Hospitals and Clinics. Drugs were added to cells at final concentrations of 5 μM ERL and 10 ng/mL or 50 ng/mL ANA. Human IgG and […] (DMSO) were used as controls and were obtained from Sigma Aldrich. Human IL-1α, IL-1β, and IL-18Rα neutralizing antibodies were obtained from R&D Systems and were used at a concentration of 0.5 μg/mL. Recombinant human IL-1α was obtained from Life Technologies and administered at a concentration of 1 ng/mL. Ac-Y-VAD-cho, a caspase-1 inhibitor (CalBioChem), was suspended in DMSO and added at a concentration of […], a pan-caspase inhibitor (Promega) was diluted in DMSO and added at a concentration of 20 μM. TLR agonists were used at the following concentrations: Pam3CSK4 (200ng/mL), FSL-1 (100 ng/mL), Poly I:C (20 μg/mL), LPS (200 ng/mL), Flagellin (200 ng/mL), Gardiquimod (1 μg/mL), CL075 (1 μg/mL), and E. coli DNA (1 μg/mL). All TLR agonists were obtained from InvivoGen. The required volume of each drug was added directly to complete cell culture media on cells to achieve the indicated final concentrations.
(§3) Levels of IL-6, IL-1α and IL-1β of treated cells were determined by ELISA. The culture media of the treated cells were harvested and each cytokine was detected according to the manufacturer's protocol using the Human Quantikine ELISA Kits (R&D Systems, Minneapolis, Minn.).
as §1, with “(20)” for “(16)”
(§4) Erlotinib (ERL; Tarceva), anakinra (ANA; Kineret) and N-acetyl cysteine (NAC; Acetadote) were obtained from the inpatient pharmacy at the University of Iowa Hospitals and Clinics. Drugs were added to cells at final concentrations of 5 μM ERL, 10 ng/mL or 50 ng/mL ANA and 20 mM NAC. Human IgG and […] (DMSO) were used as controls and were obtained from Sigma Aldrich. Pegylated catalase (CAT; Sigma Aldrich) was used at a final concentration of 100 U/mL. Human IL-1α, IL-1β, and IL-18Ra neutralizing antibodies were obtained from R&D Systems and were used at a concentration of 0.5 μg/mL. Recombinant human IL-1α was obtained from Life Technologies and administered at a concentration of 1 ng/mL. Ac-Y-VAD-cho (CalBioChem) was suspended in DMSO and used at 5 μM. Z-VAD-fmk (Promega) was diluted in DMSO and used at 20 μM. TLR agonists were used at the following concentrations: Pam3CSK4 (200 ng/mL), FSL-1 (100 ng/mL), Poly I:C (20 μg/mL), LPS (200 ng/mL), Flagellin (200 ng/mL), Gardiquimod (1 μg/mL), CL075 (1 μg/mL), and E. coli DNA (1 μg/mL). All TLR agonists were obtained from InvivoGen. […]

Cal-27 HNSCC cells [2] = test: IL-6 secretion by ELISA in Cal-27 cells; format: cell-based, human; settings: for baseline IL-6 (absence of erlotinib): agent 2 h (1 h for caspase inhibitors, NAC, CAT) then DMSO 48 h; for erlotinib-induced IL-6: agent pre-treatment then erlotinib 5 μM 48 h
Excerpt: as §1, §2, §3
as §1, with “(20)” for “(16)”
as §4

SQ20B HNSCC cells [3] = test: IL-1α release by ELISA in SQ20B cells; format: cell-based, human; settings: for baseline IL-1α levels: agent 1 h then DMSO 48 h; for erlotinib-induced IL-1α release: agent 1 h then erlotinib 5 μM 48 h
Method: as §2, §3
(§5) Erlotinib (ERL; Tarceva), anakinra (ANA; Kineret) and N-acetyl cysteine (NAC; Acetadote) were obtained from the inpatient pharmacy at the University of Iowa Hospitals and Clinics. Drugs were added to cells at final concentrations of 5 μM ERL, 10 ng/mL or 50 ng/mL ANA and 20 mM NAC. Human IgG and […] (DMSO) were used as controls and were obtained from Sigma Aldrich. Pegylated catalase (CAT; Sigma Aldrich) was used at a final concentration of 100 U/mL. Human IL-1α, IL-1β, and IL-18Ra neutralizing antibodies were obtained from R&D Systems and were used at a concentration of 0.5 μg/mL. Recombinant human IL-1α was obtained from Life Technologies and administered at a concentration of 1 ng/mL. Ac-Y-VAD-cho (CalBioChem) was suspended in DMSO and used at 5 μM. Z-VAD-fmk (Promega) was diluted in DMSO and used at 20 μM. TLR agonists were used at the following concentrations: Pam3CSK4 (200 ng/mL), FSL-1 (100 ng/mL), Poly I:C (20 μg/mL), LPS (200 ng/mL), Flagellin (200 ng/mL), Gardiquimod (1 μg/mL), CL075 (1 μg/mL), and E. coli DNA (1 μg/mL). All TLR agonists were obtained from InvivoGen. The required volume of each drug was added directly to complete cell culture media on cells to achieve the indicated final concentrations.
(§6) Levels of IL-6, IL-1α and IL-1β of treated cells were determined by ELISA. The culture media of the treated cells were harvested and each cytokine was detected according to the manufacturer's protocol using Human Quantikine ELISA Kits (R&D Systems, Minneapolis, Minn.).

Cal-27 HNSCC cells [4] = test: IL-1α release by ELISA in Cal-27 cells; format: cell-based, human; settings: for baseline IL-1α levels: agent 1 h then DMSO 48 h; for erlotinib-induced IL-1α release: agent 1 h then erlotinib 5 μM 48 h
Method: as §2, §3, §5, §6

SQ20B cells = test: Clonogenic survival assay; format: cell-based, human; settings: Z-VAD 20 μM with erlotinib
Method: Clonogenic survival was determined as previously described (17). Individual assays were performed with multiple dilutions with at least four cloning dishes per data point, repeated in at least 3 separate experiments. Tumor cell implantation: Female 4-5 week old athymic-nu/nu nude mice were purchased from Harlan Laboratories (Indianapolis, IN). Mice were housed in a pathogen-free barrier room in the Animal Care Facility at the University of Iowa and handled using aseptic procedures. All procedures were approved by the IACUC committee of the University of Iowa and conformed to the guidelines established by the NIH. Mice were allowed at least 3 days to acclimate prior to beginning experimentation, and food and water were made freely available. Tumor cells (shCON or shMyD88) were inoculated into nude mice by subcutaneous injection of 0.1 mL aliquots of saline containing 2×10^6 FaDu cells into the right flank using 26-gauge needles.
Clonogenic survival was determined as previously described (22). Individual assays were performed with multiple dilutions with at least four cloning dishes per data point, repeated in at least 3 separate experiments.

SQ20B and Cal27 cells = format: cell-based
Method: To determine whether cell death is responsible for IL-1α release, we used Z-VAD-fmk, a pan-caspase inhibitor, to prevent cell death. We also tested Ac-Y-VAD-cho, caspase-1 inhibitor, to assess inflammasome involvement. After testing various combinations of these inhibitors, we found an optimal concentration of 20 μM Z-VAD and 5μM Y-VAD. […] To confirm that the pan-caspase inhibitor was effectively blocking cell death, we performed a clonogenic assay with erlotinib- and Z-VAD-treated cells in SQ20B cells.

[5] = listed as pan-caspase inhibitor

Molecule: CS(=O)(=O)CCNCc1ccc(-c2ccc3ncnc(Nc4ccc(OCc5cccc(F)c5)c(Cl)c4)c3c2)o1 [lapatinib]
- IL-6 expression/secretion in HNSCC cell lines treated with EGFRIs (HNSCC tumor cell lines): significant upregulation

Molecule: anakinra
- baseline IL-6 (absence of erlotinib) (SQ20B HNSCC cells [1]): significantly reduced
- erlotinib-induced IL-6 (SQ20B HNSCC cells [1]): significantly reduced; also recorded: effectively blocked
- erlotinib-induced IL-6 (SQ20B HNSCC cells [1]; listed as Anakinra): effectively blocked
- baseline IL-6 (absence of erlotinib) (Cal-27 HNSCC cells [2]): significantly reduced
- erlotinib-induced IL-6 (Cal-27 HNSCC cells [2]): significantly reduced; also recorded: effectively blocked
- erlotinib-induced IL-6 (Cal-27 HNSCC cells [2]; listed as Anakinra): effectively blocked

Molecule: panitumumab
- IL-6 expression/secretion in HNSCC cell lines treated with EGFRIs (HNSCC tumor cell lines): significant upregulation

Molecule: COC(=O)C[C@H](NC(=O)[C@H](C)NC(=O)[C@@H](NC(=O)OCc1ccccc1)C(C)C)C(=O)CF [Z-VAD-fmk] (Cbz-Val-Ala-Asp(OMe)-CH2F)
- baseline IL-1α levels (SQ20B HNSCC cells [3]): significantly reduced
- baseline IL-1α levels (SQ20B HNSCC cells [3]; listed as Z-VAD): significantly reduce
- erlotinib-induced IL-1α release (SQ20B HNSCC cells [3]): significantly reduced
- erlotinib-induced IL-1α release (SQ20B HNSCC cells [3]; listed as Z-VAD): significantly reduce
- erlotinib-induced IL-1α release (SQ20B HNSCC cells [3]; listed as ZVAD): blocked
- erlotinib-induced IL-1α release (SQ20B HNSCC cells [3]; [5]): blocked
- baseline IL-1α levels (Cal-27 HNSCC cells [4]): significantly reduced
- baseline IL-1α levels (Cal-27 HNSCC cells [4]; listed as Z-VAD): significantly reduce
- erlotinib-induced IL-1α release (Cal-27 HNSCC cells [4]): significantly reduced
- erlotinib-induced IL-1α release (Cal-27 HNSCC cells [4]; listed as Z-VAD): significantly reduce
- erlotinib-induced IL-1α release (Cal-27 HNSCC cells [4]; listed as ZVAD): blocked
- erlotinib-induced IL-1α release (Cal-27 HNSCC cells [4]; [5]): blocked
- erlotinib-induced cell death (SQ20B cells): blocked
- erlotinib-induced cell death (SQ20B cells; listed as Z-VAD): significantly blocked
- erlotinib-induced cell death (SQ20B cells; listed as ZVAD): blocked
- erlotinib-induced cell death (SQ20B cells; [5]): blocked
- highest dose that did not result in toxicity (optimal concentration) (SQ20B and Cal27 cells): 20 µM

Molecule: Ac-Y-VAD-cho
- erlotinib-induced IL-6 (SQ20B HNSCC cells [1]): did not affect
- erlotinib-induced IL-6 (Cal-27 HNSCC cells [2]): did not affect
- erlotinib-induced IL-1α release (SQ20B HNSCC cells [3]): did not see a decrease; also recorded: not observed
- baseline IL-1α levels (Cal-27 HNSCC cells [4]): not observed
- erlotinib-induced IL-1α release (Cal-27 HNSCC cells [4]): did not see a decrease; also recorded: not observed
- highest dose that did not result in toxicity (optimal concentration) (SQ20B and Cal27 cells): 5 µM

Molecule: CC(=O)N[C@@H](CS)C(=O)O [NAC, N-acetyl cysteine]
- erlotinib-induced IL-6 (SQ20B HNSCC cells [1]): significantly suppressed
- erlotinib-induced IL-6 (Cal-27 HNSCC cells [2]): significantly suppressed
- erlotinib-induced IL-1α release (SQ20B HNSCC cells [3]): significantly suppressed
- erlotinib-induced IL-1α release (Cal-27 HNSCC cells [4]): significantly suppressed

B1: CAT: Pegylated catalase (Sigma Aldrich), antioxidant, 100 U/mL (protein, UniProt P00432 2-527, looked up)
Catalase: ADNRDPASDQMKHWKEQRAAQKPDVLTTGGGNPVGDKLNSLTVGPRGPLLVQDVVFTDEMAHFDRERIPERVVHAKGAGAFGYFEVTHDITRYSKAKVFEHIGKRTPIAVRFSTVAGESGSADTVRDPRGFAVKFYTEDGNWDLVGNNTPIFFIRDALLFPSFIHSQKRNPQTHLKDPDMVWDFWSLRPESLHQVSFLFSDRGIPDGHRHMNGYGSHTFKLVNANGEAVYCKFHYKTDQGIKNLSVEDAARLAHEDPDYGLRDLFNAIATGNYPSWTLYIQVMTFSEAEIFPFNPFDLTKVWPHGDYPLIPVGKLVLNRNPVNYFAEVEQLAFDPSNMPPGIEPSPDKMLQGRLFAYPDTHRHRLGPNYLQIPVNCPYRARVANYQRDGPMCMMDNQGGAPNYYPNSFSAPEHQPSALEHRTHFSGDVQRFNSANDDNVTQVRTFYLKVLNEEQRKRLCENIAGHLKDAQLFIQKKAVKNFSDVHPEYGSRIQALLDKYNEEKPKNAVHTYVQHGSHLSAREKANL
modifications: PEG
notes: Pegylated catalase (Sigma Aldrich), antioxidant, 100 U/mL
- erlotinib-induced IL-6 (SQ20B HNSCC cells [1]): significantly suppressed
- erlotinib-induced IL-6 (Cal-27 HNSCC cells [2]): significantly suppressed
- erlotinib-induced IL-1α release (SQ20B HNSCC cells [3]): significantly suppressed
- erlotinib-induced IL-1α release (Cal-27 HNSCC cells [4]): significantly suppressed

B2: Exogenous IL-1α: Recombinant human IL-1α from Life Technologies, 1 ng/mL (protein, UniProt P01583 113-271, looked up)
Interleukin-1 alpha: SAPFSFLSNVKYNFMRIIKYEFILNDALNQSIIRANDQYLTAAALHNLDEAVKFDMGAYKSSKDDAKITVILRISKTQLYVTAQDEDQPVLLKEMPEIPKTITGSETNLLFFWETHGTKNYFTSVAHPNLFIATKQDYWVCLAGGPPSITDFQILENQA
- baseline IL-6 (absence of erlotinib) (SQ20B HNSCC cells [1]): increased
- erlotinib-induced IL-6 (SQ20B HNSCC cells [1]): increased
- baseline IL-6 (absence of erlotinib) (Cal-27 HNSCC cells [2]): increased
- erlotinib-induced IL-6 (Cal-27 HNSCC cells [2]): increased
